Here are results for five compounds from patent publication US8946249B2, “Compound, certain novel forms thereof, pharmaceutical compositions thereof and methods for preparation and use” (Hutchinson Medipharma Limited, priority 2009, dated 2015).

For data set [1], the target named is T1, recombinant human KDR catalytic domain (Homo sapiens, UniProt P35968).
T1 construct: 300 ng/mL of recombinant human KDR catalytic domain
Description: KDR kinase inhibition, Z'-LYTE assay kit. In kind it is biochemical. The settings on record: 10 μM ATP, 1 μM Tyr1 peptide, 25° C., 1 hour. How it is done: The KDR kinase inhibition activity of the above three compounds is tested using the Z-Lyte assay kit.
Z′-LYTE™ Tyr1 peptide (Invitrogen, Cat. PV3190) is used to test the KDR kinase inhibitory activity of the above three compounds. The testing system contains 300 ng/mL of recombinant human KDR catalytic domain, 10 μM of ATP, 1 μM of substrate peptide, and a test compound at a series of different concentrations in 384-well plate (Thermo Labsystems, Cat. 7805); total volume is 10 μL. The enzymatic inhibition proceeds at room temperature (25° C.) for 1 hour on the shaker, followed by addition of 5 μL of enhancer and incubation for an additional 1 hour at room temperature on the shaker. 5 μL of stop solution is added to stop the reaction. The KDR kinase inhibition activity of a test compound is calculated based on the method recommended by the manufacturer. The IC50 values of the KDR kinase inhibition activity are calculated using XLfit software.
(1) Dilution of the test compounds: each of the above three compounds is dissolved in DMSO to prepare a […] stock solution and stored in −20° C. freezer. The stock solution is diluted to the four times concentration of the desired test concentration with 8% DMSO before use. […]
(7) Kinase inhibition: Add the following components in turn in a 384-well plate. […] Seal the plate with aluminum foil and allow the reaction to proceed at room temperature (25° C.) for 1 hour on the shaker (250 rpm). • e) Dilution of enhancer solution (right before use): according to the recommendation of manufacturer, dilute enhancer stock with development dilution buffer 128-fold. • f) Fluorescence enhancement: add 5 μL/well of the diluted enhancer solution in all wells, briefly spin at 1000 rpm, re-seal the plate and let the reaction proceed at room temperature for an additional hour on the shaker. • g) Add 5 μL/well of stop solution to all wells, briefly spin at 1000 rpm. Mix at room temperature for 2 minutes on the shaker, and read florescence signals on Victor3 (Perkin Elmer) at excitation 400 nm, emission 445 nm/530 nm. […]

The target of the next data set is T2, hERG channels (Homo sapiens, UniProt Q12809).
T2 construct: expressed in transfected cells; host or cells: CHO
Kind of data set: hERG whole-cell patch clamp in CHO cells stably transfected with hERG cDNA. In kind it is cell-based. The settings on record: CHO cells expressing hERG, tail current; read-out: hERG current inhibition IC50. How it is done:
A CHO cell line stably transfected with hERG cDNA and expressing hERG channels was used for the study. Cells were cultured in a medium comprising:
Before testing, cells were harvested using an Accumax (Innovative Cell Technologies).
Whole-cell recording was performed using a 700B (Axon Instruments). The cells were voltage clamped at a holding potential of −80 mV. The hERG current was activated by depolarizing at +20 mV for 2 sec, after which the current was taken back to −50 mV for 2 sec to remove the inactivation and observe the deactivating tail current. The first step at −50 mV was used as a baseline for measuring the tail current peak amplitude.
Test compound was prepared as a 10 mM DMSO stock solution in a glass vial. The stock solution was mixed vigorously for 10 minute at room temperature. The stock solution was diluted in a glass vial using External Solution; the dilution was prepared no longer than 30 minutes before use. Equal amounts of DMSO (0.1%) were present at final dilution.
After achieving whole-cell configuration, the cells were monitored for 90 sec to assess stability and washed with external solution for 66 sec. The voltage protocol described above was then applied to the cells every 20 sec throughout the whole procedure. […]
Data were analyzed using Clampfit (both by Axon Instruments) and Origin 7 (Originlab Corporation).
A general note: hERG is a cardiac potassium channel; its block is linked to QT prolongation.

The target of a further data set is T3, FGFR1 kinase (Homo sapiens, UniProt P11362).
T3 construct: purchased Invitrogen PV3146
Kind of data set: FGFR1 kinase activity assay, Transcreener FP. The class given is biochemical. Conditions: 10 μM ATP, 60 minutes, room temperature. The method, then:
The Transcreener FP technology of Bellbrook Labs is used in the FGFR1 kinase activity assay. The kinase reaction was done in 96-well half area black plate (Greiner, Cat. 675076). In each well, were added 5 μL of test compounds in 5% DMSO, 10 μL of 0.3 ng/μL FGFR1 kinase (Invitrogen, PV3146) diluted in assay buffer. The reaction was started by the addition of 10 of 62.5 ng/μL poly (Glu:Tyr, 4:1) substrate (Sigma, P0275) and 25 μmol/L of ATP mixture, and incubated for 60 minutes at room temperature. The final conditions for kinase assay were: 10 μM of ATP, 0.12 ng/μL of FGFR1 kinase, 25 ng/μL of substrate, 53.6 mmol/L of HEPES (pH 7.5), 21.6 mmol/L of MgCl2, 0.536 mmol/L of MnCl2, 1 mmol/L of DTT and 0.01% Triton X-100, 1% DMSO.
At the same time, an ADP standard curve was performed. The standard curve mimics a kinase reaction in the absence of test compound, kinase, and lipid substrate. The standard curve contained 12 concentration points, and total [ATP+ADP] ranged from 10 μM to 0.01 μM. […]
After reacting for 60 minutes at room temperature, 25 μL of transcreener Kinase Kit reagent—ADP Detection Mix—(Bellbrook Labs) was added and reacted for an additional 1.0 hours. The plates were then read in Tecan Infinite F500 at an excitation of 610 nm and an emission of 670 nm. […] The inhibition of test compound on ADP production was calculated based on ADP concentration calculated from standard curve. […]

Data set [2] in a line: Pharmacokinetics study in mice. The class given is in vivo. The settings on record: male, ICR; mouse plasma, single oral dose 10 mg/kg. How it is done: Experimental Method: The pharmacokinetics of the test compounds were studied with male ICR mice (n=6 for each group, weight 20˜30 g) after a single intraveneous (i.v.) and oral (p.o.) dosing at 2.5 and 10 mg/kg, respectively. For i.v. dosing formulation, the test compound was dissolved in DMSO (0.25%)-solutol (10%)-ethanol (10%)-physiological saline (79.75%) at the concentration of 0.25 mg/mL. And the p.o. dosing formulation (1 mg/mL) was prepared with 0.5% CMC-Na. After i.v. or p.o. dosing, blood samples were collected via the ophthalmic vein at 0 (pre-dose), 5, 15, 30 min and 1, 1.5, 2, 4, 8, 24 h, anti-coagulated with heparin-Na. After centrifugation, plasma samples were separated and protein precipitated with acetonitrile (containing internal standard). The concentration of the testing compounds in these plasma samples were then determined by LC/MS/MS.

The nature of data set [3]: Hygroscopicity, saturated salt solution method. The settings on record: 10 days, 25° C.; for Stability under the testing humidity conditions: crystalline form unchanged; for Hygroscopicity (in words): saturated NaCl solution. The class given is physicochemical. How it is done: The desiccator was closed and left standing for 10 days at 25° C. Then the samples were taken out and weighed again, and the weight gain was calculated.

Data set [4] is described as follows: Thermodynamic stability comparison, slurry of Form I and Form II mixture. The class given is physicochemical. The settings on record: 1 g each of Form I and Form II in 10 mL methanol, 60° C., 20 h, powder X-ray diffraction. The text has this:
Then the suspension was filtered with a Buchner funnel and paper disk, and dried under a vacuum oven.

Molecules are shown by their SMILES.

For orientation: IC50 means the concentration that inhibits the measured activity by half. Usually AUC stands for concentration integrated over time. Higher therefore signals high exposure. What is called Cmax is the peak of the concentration-time curve.

T1 sequence (P35968 834-1162 limits assumed): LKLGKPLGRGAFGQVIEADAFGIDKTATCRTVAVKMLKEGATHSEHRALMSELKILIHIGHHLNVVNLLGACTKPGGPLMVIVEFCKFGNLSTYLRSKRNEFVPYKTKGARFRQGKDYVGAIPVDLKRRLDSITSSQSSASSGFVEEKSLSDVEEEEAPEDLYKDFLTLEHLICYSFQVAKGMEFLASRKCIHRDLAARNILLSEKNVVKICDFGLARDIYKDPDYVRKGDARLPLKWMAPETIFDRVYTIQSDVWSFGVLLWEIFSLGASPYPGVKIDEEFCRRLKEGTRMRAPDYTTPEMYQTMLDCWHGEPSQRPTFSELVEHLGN
T2 sequence (Q12809 whole entry): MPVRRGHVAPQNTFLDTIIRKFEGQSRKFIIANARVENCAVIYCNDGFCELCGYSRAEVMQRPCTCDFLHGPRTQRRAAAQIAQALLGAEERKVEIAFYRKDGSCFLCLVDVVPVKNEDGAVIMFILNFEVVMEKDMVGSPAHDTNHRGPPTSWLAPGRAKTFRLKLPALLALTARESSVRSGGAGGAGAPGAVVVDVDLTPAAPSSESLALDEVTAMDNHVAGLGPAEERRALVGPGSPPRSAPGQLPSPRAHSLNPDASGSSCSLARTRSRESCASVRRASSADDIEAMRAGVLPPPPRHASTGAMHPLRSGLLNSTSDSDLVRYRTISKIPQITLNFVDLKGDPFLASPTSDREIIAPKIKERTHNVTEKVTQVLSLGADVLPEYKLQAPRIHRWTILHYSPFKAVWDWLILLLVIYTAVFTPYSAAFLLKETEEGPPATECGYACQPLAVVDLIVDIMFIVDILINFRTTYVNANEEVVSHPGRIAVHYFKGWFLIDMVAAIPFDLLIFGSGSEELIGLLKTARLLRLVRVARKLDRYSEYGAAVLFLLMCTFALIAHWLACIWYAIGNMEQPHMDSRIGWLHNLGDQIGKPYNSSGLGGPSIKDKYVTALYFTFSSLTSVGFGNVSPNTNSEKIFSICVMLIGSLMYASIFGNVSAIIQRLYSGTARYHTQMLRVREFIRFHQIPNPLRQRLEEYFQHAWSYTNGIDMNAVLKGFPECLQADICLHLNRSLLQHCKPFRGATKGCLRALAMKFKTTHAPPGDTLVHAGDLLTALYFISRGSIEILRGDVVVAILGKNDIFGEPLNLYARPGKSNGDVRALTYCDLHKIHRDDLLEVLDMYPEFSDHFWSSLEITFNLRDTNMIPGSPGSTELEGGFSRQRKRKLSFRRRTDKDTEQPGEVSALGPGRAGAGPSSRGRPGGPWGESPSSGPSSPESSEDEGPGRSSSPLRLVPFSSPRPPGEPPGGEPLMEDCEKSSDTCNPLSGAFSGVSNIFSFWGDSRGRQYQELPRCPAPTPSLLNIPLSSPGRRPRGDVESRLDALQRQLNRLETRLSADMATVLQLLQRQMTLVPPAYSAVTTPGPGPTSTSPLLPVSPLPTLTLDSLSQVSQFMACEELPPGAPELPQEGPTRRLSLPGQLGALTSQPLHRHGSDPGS
T3 sequence (P11362 22-822): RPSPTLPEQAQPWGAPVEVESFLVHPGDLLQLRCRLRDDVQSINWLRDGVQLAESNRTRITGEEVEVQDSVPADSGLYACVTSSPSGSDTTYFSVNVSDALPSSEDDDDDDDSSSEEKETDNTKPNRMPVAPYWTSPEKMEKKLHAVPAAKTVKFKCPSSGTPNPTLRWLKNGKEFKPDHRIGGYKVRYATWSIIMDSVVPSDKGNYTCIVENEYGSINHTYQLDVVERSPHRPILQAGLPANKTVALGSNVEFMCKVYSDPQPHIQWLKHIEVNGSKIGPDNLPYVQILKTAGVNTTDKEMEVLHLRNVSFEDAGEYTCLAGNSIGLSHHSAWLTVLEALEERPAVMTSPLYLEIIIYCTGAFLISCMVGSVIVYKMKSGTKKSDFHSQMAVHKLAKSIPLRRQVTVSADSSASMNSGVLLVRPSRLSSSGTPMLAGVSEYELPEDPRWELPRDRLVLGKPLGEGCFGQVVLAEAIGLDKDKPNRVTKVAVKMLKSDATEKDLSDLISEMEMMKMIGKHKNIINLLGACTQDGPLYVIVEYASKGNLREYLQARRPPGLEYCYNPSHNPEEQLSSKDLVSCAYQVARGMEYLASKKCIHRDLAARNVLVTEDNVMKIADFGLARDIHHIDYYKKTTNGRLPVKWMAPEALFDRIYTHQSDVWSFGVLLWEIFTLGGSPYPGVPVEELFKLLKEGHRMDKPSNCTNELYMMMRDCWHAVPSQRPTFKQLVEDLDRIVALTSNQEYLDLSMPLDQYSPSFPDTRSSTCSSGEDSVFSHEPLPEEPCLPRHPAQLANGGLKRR

In the case of `Cc1cc2cc(Oc3ccnc(Nc4cccc(CS(=O)(=O)NCCN(C)C)c4)n3)ccc2[nH]1` [Compound A, N-(2-(dimethylamino)ethyl)-1-(3-((4-((2-methyl-1H-indol-5-yl)oxy)pyrimidin-2-yl)amino)phenyl)-methanesulfonamide], the 50% inhibitory concentration (IC50) in data set [1] was 21 nM; at hERG channels it was 6800 nM; on FGFR1 kinase, 53 nM. The exposure (AUC) in data set [2] was found to be 397 ng·h/mL. This compound had a Cmax in data set [2] of 138 ng/mL.
Consider `CNS(=O)(=O)Cc1cccc(Nc2nccc(Oc3ccc4[nH]c(C)cc4c3)n2)c1` [Compound B, N-methyl-1-(3-((4-((2-methyl-1H-indol-5-yl)oxy)pyrimidin-2-yl)amino)phenyl)methanesulfonamide, reference compound], for which, in data set [1], the half-maximal inhibitory concentration (IC50) is 38 nM. In data set [2], this compound gave an AUC of 26 ng·h/mL and a peak concentration (Cmax) of 20 ng/mL.
On to `Cc1cc2cc(Oc3ccnc(Nc4cccc(CS(=O)(=O)NCCN(C)C)c4)n3)ccc2[nH]1` [Form I, Form I N-(2-(dimethylamino)ethyl)-1-(3-((4-((2-methyl-1H-indol-5-yl)oxy)pyrimidin-2-yl)amino)phenyl)-methanesulfonamide], for which the “Stability under the testing humidity conditions” value in data set [3] is “stable”. In addition, the “Hygroscopicity (in words)” value in data set [3] (listed as Form I sample) is “non-hygroscopic”. Further, the “Thermodynamic stability, form after slurry” value in data set [4] is recorded as “physically and/or thermodynamically more stable than Form II”.
For the compound `Cc1cc2cc(Oc3ccnc(Nc4cccc(CS(=O)(=O)NCCN(C)C)c4)n3)ccc2[nH]1` [Form II, Form II N-(2-(dimethylamino)ethyl)-1-(3-((4-((2-methyl-1H-indol-5-yl)oxy)pyrimidin-2-yl)amino)phenyl)methanesulfonamide], in data set [3], the “Stability under the testing humidity conditions” value was “stable” and the “Hygroscopicity (in words)” value was “slightly hygroscopic”. Also, the “Thermodynamic stability, form after slurry” value in data set [4] is on record as “transformed to the Form I”.
Take `Cc1cc2c(F)c(Nc3ccnc(Nc4cccc(OCCN5CCOCC5)c4)n3)ccc2[nH]1` [compound of Formula C, N^4-(4-fluoro-2-methyl-1H-indol-5-yl)-N^2-(3-(2-morpholinoethoxy)phenyl)pyrimidine-2,4-diamine, reference compound]: the IC50 in data set [1] worked out at 111 nM; at hERG channels, 547 nM.
